From ChEMBL document CHEMBL4680263, “Identification of benzothiazinones containing 2-benzyl-2,7-diazaspiro[3.5]nonane moieties as new antitubercular agents” (Eur J Med Chem, 2020)
In brackets after ≈: the same amount, converted by molar mass.

Tests used:
[1] = test system: Mycobacterium tuberculosis; assay: Antimycobacterial activity against Mycobacterium tuberculosis H37Rv ATCC 27294 assessed as inhibition of bacterial growth incubated for 7 days by MABA assay; assay type: functional; settings: H37Rv ATCC 27294, 168 h, time 7 day
[2] = Tmax in BALB/c mouse at 12.5 mg/kg, po measured upto 24 hrs by HPLC analysis; assay type: ADME, organism-based; settings: in vivo
[3] = test system: Mycobacterium tuberculosis; assay: Antimycobacterial activity against Mycobacterium tuberculosis H37Rv infected in BALB/c mouse assessed as reduction in colony forming unit in lung at 25 mg/kg, po administered once daily for 5 days a week for 3 weeks (reference value: 5.35 +/- 0.17 log10CFU); assay type: functional
[4] = Oral bioavailability in BALB/c mouse at 12.5 mg/kg measured upto 24 hrs by HPLC analysis; assay type: ADME, organism-based; settings: in vivo; for bioavailability: BALB/c
[5] = Cmax in BALB/c mouse at 2.5 mg/kg, iv measured upto 24 hrs by HPLC analysis; assay type: ADME, organism-based; set-up: route intravenous, dose 2.5 mg/kg, time <=24; settings: in vivo
[6] = Acute toxicity in BALB/c mouse assessed as mouse survival at 2 g/kg, po observed continuously for 4 hrs and each hr for next 24 hrs and at 8 hrs interval for following 7 days; assay type: organism-based; settings: in vivo, 2000 mg/kg, 168 h, time 7 day
[7] = AUC (0 to infinity) in BALB/c mouse at 2.5 mg/kg, iv measured upto 24 hrs by HPLC analysis; assay type: ADME, organism-based; set-up: route intravenous, dose 2.5 mg/kg, time <=24; settings: in vivo
[8] = AUC (0 to infinity) in BALB/c mouse at 12.5 mg/kg, po measured upto 24 hrs by HPLC analysis; assay type: ADME, organism-based; set-up: route oral, dose 12.5 mg/kg, time <=24; settings: in vivo
[9] = Half life in BALB/c mouse at 12.5 mg/kg, po measured upto 24 hrs by HPLC analysis; assay type: ADME, organism-based; settings: in vivo
[10] = Cmax in BALB/c mouse at 12.5 mg/kg, po measured upto 24 hrs by HPLC analysis; assay type: ADME, organism-based; set-up: route oral, dose 12.5 mg/kg, time <=24; settings: in vivo
[11] = Cytotoxicity against African green monkey Vero cells; assay type: cell-based; settings: chlorocebus sabaeus
[12] = Half life in BALB/c mouse at 2.5 mg/kg, iv measured upto 24 hrs by HPLC analysis; assay type: ADME, organism-based; settings: in vivo

## CC(c1ccc(Cl)cc1)N1CC2(CCN(c3nc(=O)c4cc(C(F)(F)F)cc([N+](=O)[O-])c4s3)CC2)C1 (centres undefined)
[1]
  MIC: < 0.016 µg/mL

## CC(c1ccc(Br)cc1)N1CC2(CCN(c3nc(=O)c4cc(C(F)(F)F)cc([N+](=O)[O-])c4s3)CC2)C1 (centres undefined)
[1]
  MIC: < 0.016 µg/mL

## CC(c1cc(F)cc(F)c1)N1CC2(CCN(c3nc(=O)c4cc(C(F)(F)F)cc([N+](=O)[O-])c4s3)CC2)C1 (centres undefined)
[1]
  MIC: < 0.016 µg/mL
[2]
  Tmax: 0.25 h
[3]
  Activity: >5 log10CFU
[4]
  bioavailability: 15%
[5]
  Cmax: 723 ng/mL
[6]
  Activity: Non-Toxic
[7]
  AUC(0-inf): 812 ng·h/mL
[8]
  AUC(0-inf): 609 ng·h/mL
[9]
  half-life: 3.02 h
[10]
  Cmax: 286 ng/mL
[11]
  CC50: > 64 µg/mL
[12]
  half-life: 3.25 h

## O=c1nc(N2CCC3(CC2)CN(Cc2cc(F)cc(F)c2)C3)sc2c([N+](=O)[O-])cc(C(F)(F)F)cc12
[1]
  MIC: < 0.016 µg/mL

## CC(c1cccc(F)c1)N1CC2(CCN(c3nc(=O)c4cc(C(F)(F)F)cc([N+](=O)[O-])c4s3)CC2)C1 (centres undefined)
[1]
  MIC: < 0.016 µg/mL

## O=c1nc(N2CCC3(CC2)CN(Cc2ccc(C(F)(F)F)cc2)C3)sc2c([N+](=O)[O-])cc(C(F)(F)F)cc12
[1]
  MIC: < 0.016 µg/mL
[6]
  Activity: Toxic
[11]
  CC50: > 64 µg/mL

## CC(c1ccc(F)c(F)c1)N1CC2(CCN(c3nc(=O)c4cc(C(F)(F)F)cc([N+](=O)[O-])c4s3)CC2)C1 (centres undefined)
[1]
  MIC: < 0.016 µg/mL

## CC(c1ccc(F)cc1)N1CC2(CCN(c3nc(=O)c4cc(C(F)(F)F)cc([N+](=O)[O-])c4s3)CC2)C1 (centres undefined)
[1]
  MIC: < 0.016 µg/mL

## CC(c1ccc(Cl)c(F)c1)N1CC2(CCN(c3nc(=O)c4cc(C(F)(F)F)cc([N+](=O)[O-])c4s3)CC2)C1 (centres undefined)
[1]
  MIC: < 0.016 µg/mL
[2]
  Tmax: 0.5 h
[3]
  Activity: >5 log10CFU
[4]
  bioavailability: 33%
[5]
  Cmax: 709 ng/mL
[6]
  Activity: Non-Toxic
[7]
  AUC(0-inf): 1170 ng·h/mL
[8]
  AUC(0-inf): 1940 ng·h/mL
[9]
  half-life: 10.1 h
[10]
  Cmax: 313 ng/mL
[11]
  CC50: > 64 µg/mL
[12]
  half-life: 7.5 h

## CC(c1cc(F)c(F)c(F)c1)N1CC2(CCN(c3nc(=O)c4cc(C(F)(F)F)cc([N+](=O)[O-])c4s3)CC2)C1 (centres undefined)
[1]
  MIC: < 0.016 µg/mL
[2]
  Tmax: 0.25 h
[3]
  Activity: >5 log10CFU
[4]
  bioavailability: 18.3%
[5]
  Cmax: 463 ng/mL
[6]
  Activity: Non-Toxic
[7]
  AUC(0-inf): 498 ng·h/mL
[8]
  AUC(0-inf): 455 ng·h/mL
[9]
  half-life: 2.08 h
[10]
  Cmax: 240 ng/mL
[11]
  CC50: > 64 µg/mL
[12]
  half-life: 1.86 h

## O=c1nc(N2CCC3(CC2)CN(Cc2ccc(F)cc2)C3)sc2c([N+](=O)[O-])cc(C(F)(F)F)cc12
[1]
  MIC: < 0.016 µg/mL

## O=c1nc(N2CCC3(CC2)CN(Cc2cccc(F)c2)C3)sc2c([N+](=O)[O-])cc(C(F)(F)F)cc12
[1]
  MIC: < 0.016 µg/mL

## CC(c1ccc(OC(F)(F)F)cc1)N1CCC2(CC1)CN(c1nc(=O)c3cc(C(F)(F)F)cc([N+](=O)[O-])c3s1)C2 (centres undefined)
[1]
  MIC: < 0.016 µg/mL
[3]
  Activity: 4.05 log10CFU
[6]
  Activity: Non-Toxic
[11]
  CC50: > 64 µg/mL

## O=c1nc(N2CCC3(CC2)CN(C(c2ccc(F)cc2)c2ccc(F)cc2)C3)sc2c([N+](=O)[O-])cc(C(F)(F)F)cc12
[1]
  MIC: 0.037 µg/mL (≈ 0.0614 µM)

## CC(c1ccc(F)c(Cl)c1)N1CC2(CCN(c3nc(=O)c4cc(C(F)(F)F)cc([N+](=O)[O-])c4s3)CC2)C1 (centres undefined)
[1]
  MIC: < 0.016 µg/mL

## CC(c1ccc(OC(F)(F)F)cc1)N1CC2(CCN(c3nc(=O)c4cc(C(F)(F)F)cc([N+](=O)[O-])c4s3)CC2)C1 (centres undefined)
[1]
  MIC: < 0.016 µg/mL
[2]
  Tmax: 0.25 h
[3]
  Activity: >5 log10CFU
[4]
  bioavailability: 24.2%
[5]
  Cmax: 1640 ng/mL
[6]
  Activity: Non-Toxic
[7]
  AUC(0-inf): 2990 ng·h/mL
[8]
  AUC(0-inf): 3620 ng·h/mL
[9]
  half-life: 6 h
[10]
  Cmax: 915 ng/mL
[11]
  CC50: > 64 µg/mL
[12]
  half-life: 8.51 h

## O=c1nc(N2CCC3(CC2)CN(Cc2ccc(OC(F)(F)F)cc2)C3)sc2c([N+](=O)[O-])cc(C(F)(F)F)cc12
[1]
  MIC: < 0.016 µg/mL

## CC(c1ccc(F)cc1F)N1CC2(CCN(c3nc(=O)c4cc(C(F)(F)F)cc([N+](=O)[O-])c4s3)CC2)C1 (centres undefined)
[1]
  MIC: < 0.016 µg/mL

## CC(c1ccc(C(F)(F)F)cc1)N1CC2(CCN(c3nc(=O)c4cc(C(F)(F)F)cc([N+](=O)[O-])c4s3)CC2)C1 (centres undefined)
[1]
  MIC: < 0.016 µg/mL
[2]
  Tmax: 0.25 h
[3]
  Activity: >5 log10CFU
[4]
  bioavailability: 41.5%
[5]
  Cmax: 1390 ng/mL
[6]
  Activity: Non-Toxic
[7]
  AUC(0-inf): 2650 ng·h/mL
[8]
  AUC(0-inf): 5500 ng·h/mL
[9]
  half-life: 6.69 h
[10]
  Cmax: 1240 ng/mL
[11]
  CC50: > 64 µg/mL
[12]
  half-life: 9.29 h

## O=c1nc(N2CCC3(CC2)CN(Cc2ccc(Br)cc2)C3)sc2c([N+](=O)[O-])cc(C(F)(F)F)cc12
[1]
  MIC: < 0.016 µg/mL

## NNC(=O)c1ccncc1 [ISONIAZID]
[1]
  MIC: 0.038 µg/mL (≈ 0.277 µM)
[3]
  Activity: >5 log10CFU

## O=c1nc(N2CCN(CC3CCCCC3)CC2)sc2c([N+](=O)[O-])cc(C(F)(F)F)cc12 [MACOZINONE]
[1]
  MIC: < 0.016 µg/mL
[2]
  Tmax: 0.25 h
[3]
  Activity: >5 log10CFU
[4]; 12.5 mg/kg, 24 h
  F: 11.8%
[5]
  Cmax: 1840 ng/mL
[7]
  AUC(0-inf): 1540 ng·h/mL
[8]
  AUC(0-inf): 912 ng·h/mL
[9]
  half-life: 5.07 h
[10]
  Cmax: 734 ng/mL
[11]
  CC50: > 64 µg/mL
[12]
  half-life: 5.14 h

## CO[C@H]1/C=C/O[C@@]2(C)Oc3c(C)c(O)c4c(O)c(c(/C=N/N5CCN(C)CC5)c(O)c4c3C2=O)NC(=O)/C(C)=C\C=C\[C@H](C)[C@H](O)[C@@H](C)[C@@H](O)[C@@H](C)[C@H](OC(C)=O)[C@@H]1C [RIFAMPIN]
[1]
  MIC: 0.037 µg/mL (≈ 0.045 µM)
